The values below are quoted from earlier work in patent US20240408056A1, “METHODS FOR REPAIRING NERVE DAMAGE USING PKC ACTIVATING THERAPEUTIC AGENTS” (priority 2023, published 2024).

The data set deals with PKC.
Where [1] appears, read: A-ring bryologs, read-out: affinity for PKC.

SMILES strings stand for the structures. Read-outs that look alike come from different tables or passages of the source.

As to `CCCCCCCC(=O)OC1C(=CC(=O)OC)CC2CC(CO)OC(=O)CC(O)CCOC(c3ccccc3)CC3CCOC(C=CC(C)(C)C1(O)O2)O3` (centres unmarked) [bryolog 4], under setting [1], the Ki is 2.3 nM.
In the case of `CCCCCCCC(=O)OC1C(=CC(=O)OC)CC2CC(CO)OC(=O)CC(O)CC3CCCC(CC4CCOC(C=CC(C)(C)C1(O)O2)O4)O3` (centres unmarked) [Analog 1], the Ki (Table 1, Bryologs, read-out: PKC Affinity) is 0.25 nM. Besides, the “affinity for PKC (in words)” value (compared with Bryostatin-1 and the other bryologs) is “highest affinity for PKC”.
As for `CCCCCCCC(=O)OC1C(=CC(=O)OC)CC2CC(CO)OC(=O)CC(O)CCOC(C(C)(C)C)CC3CCOC(C=CC(C)(C)C1(O)O2)O3` (centres unmarked) [bryolog 3], the Ki under setting [1] is 6.5 nM.
With `CCCCCCCC(=O)OC1C(=CC(=O)OC)CC2CC(CO)OC(=O)CC(O)CCOC(CCCc3ccc(Br)cc3)CC3CCOC(C=CC(C)(C)C1(O)O2)O3` (centres unmarked) [bryolog 5], the Ki under setting [1] was 1.9 nM.
